Key:
Format in all cases: cell-based
IKKβ [1] = molecular target: T1, IKKβ (Homo sapiens, UniProt O14920); assay: competition with 4-OI-alk in affinity pull-down, immunoblot; conditions: covalent; 125 μM 4-OI for 30 min, then 125 μM 4-OI-alk for 4 h in intact 786-O cells
T1 construct: gene IKBKB; endogenous full-length protein in 786-O cells, detected by anti-IKKβ immunoblot
T1 sequence (O14920 1-756): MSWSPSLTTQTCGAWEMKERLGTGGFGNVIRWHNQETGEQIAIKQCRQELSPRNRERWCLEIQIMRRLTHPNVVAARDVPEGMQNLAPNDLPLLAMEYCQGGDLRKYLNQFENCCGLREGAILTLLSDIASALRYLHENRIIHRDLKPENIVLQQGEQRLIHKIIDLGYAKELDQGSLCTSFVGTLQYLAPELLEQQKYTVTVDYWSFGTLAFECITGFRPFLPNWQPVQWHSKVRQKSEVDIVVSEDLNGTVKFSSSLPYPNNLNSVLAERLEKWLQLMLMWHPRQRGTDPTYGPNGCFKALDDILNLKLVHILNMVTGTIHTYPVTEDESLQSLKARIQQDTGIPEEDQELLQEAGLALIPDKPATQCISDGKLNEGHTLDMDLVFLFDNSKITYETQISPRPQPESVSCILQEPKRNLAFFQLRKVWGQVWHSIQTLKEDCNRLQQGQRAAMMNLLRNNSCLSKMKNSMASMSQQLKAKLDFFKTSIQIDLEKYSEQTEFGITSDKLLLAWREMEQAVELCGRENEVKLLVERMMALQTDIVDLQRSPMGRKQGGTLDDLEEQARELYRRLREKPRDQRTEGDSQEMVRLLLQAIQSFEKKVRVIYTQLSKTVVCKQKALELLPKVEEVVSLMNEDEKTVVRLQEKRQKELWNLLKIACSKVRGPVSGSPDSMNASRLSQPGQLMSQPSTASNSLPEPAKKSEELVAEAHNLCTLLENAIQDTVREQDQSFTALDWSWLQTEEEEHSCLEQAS

MAVS [2] = molecular target: T2, MAVS (Homo sapiens, UniProt Q7Z434); assay: as above; conditions: covalent; 125 μM 4-OI for 30 min, then 125 μM 4-OI-alk for 4 h in intact 786-O cells
T2 construct: endogenous full-length protein in 786-O cells, detected by anti-MAVS immunoblot
T2 sequence (Q7Z434 2-540): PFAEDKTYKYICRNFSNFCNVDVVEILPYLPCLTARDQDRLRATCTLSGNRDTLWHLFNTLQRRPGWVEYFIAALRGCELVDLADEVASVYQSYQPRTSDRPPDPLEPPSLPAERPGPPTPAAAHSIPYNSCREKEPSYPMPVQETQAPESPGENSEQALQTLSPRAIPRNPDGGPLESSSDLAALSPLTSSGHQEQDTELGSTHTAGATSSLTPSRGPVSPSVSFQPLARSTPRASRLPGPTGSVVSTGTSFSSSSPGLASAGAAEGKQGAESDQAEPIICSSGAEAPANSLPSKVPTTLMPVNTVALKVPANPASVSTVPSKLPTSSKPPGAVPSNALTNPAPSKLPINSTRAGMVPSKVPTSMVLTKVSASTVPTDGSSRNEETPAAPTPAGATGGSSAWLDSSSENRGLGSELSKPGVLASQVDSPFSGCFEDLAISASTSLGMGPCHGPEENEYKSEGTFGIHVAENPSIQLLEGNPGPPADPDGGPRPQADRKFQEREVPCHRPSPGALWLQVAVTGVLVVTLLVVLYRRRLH

IKKβ [3] = molecular target: T1, IKKβ; assay: alkyne probe labelling in cells, CuAAC to biotin azide, streptavidin pull-down, immunoblot; conditions: covalent; 125 μM in intact 786-O cells
Flag-MAVS = molecular target: T3, Flag-MAVS (Homo sapiens, UniProt Q7Z434); assay: alkyne probe labelling in transfected cells, CuAAC to biotin azide, streptavidin pull-down, anti-Flag immunoblot; conditions: covalent; 125 μM, 4 h in intact HEK293T cells
T3 construct: Flag-tagged MAVS expressed from plasmid in HEK293T cells
T3 sequence (Q7Z434 2-540): as above

JAK1 = molecular target: T4, JAK1 (Homo sapiens, UniProt P23458); assay: alkyne probe labelling in cells, CuAAC to biotin azide, streptavidin pull-down, immunoblot; conditions: covalent; 125 μM in intact 786-O cells
T4 construct: endogenous full-length protein in 786-O cells, detected by anti-Jak1 immunoblot
T4 sequence (P23458 whole entry): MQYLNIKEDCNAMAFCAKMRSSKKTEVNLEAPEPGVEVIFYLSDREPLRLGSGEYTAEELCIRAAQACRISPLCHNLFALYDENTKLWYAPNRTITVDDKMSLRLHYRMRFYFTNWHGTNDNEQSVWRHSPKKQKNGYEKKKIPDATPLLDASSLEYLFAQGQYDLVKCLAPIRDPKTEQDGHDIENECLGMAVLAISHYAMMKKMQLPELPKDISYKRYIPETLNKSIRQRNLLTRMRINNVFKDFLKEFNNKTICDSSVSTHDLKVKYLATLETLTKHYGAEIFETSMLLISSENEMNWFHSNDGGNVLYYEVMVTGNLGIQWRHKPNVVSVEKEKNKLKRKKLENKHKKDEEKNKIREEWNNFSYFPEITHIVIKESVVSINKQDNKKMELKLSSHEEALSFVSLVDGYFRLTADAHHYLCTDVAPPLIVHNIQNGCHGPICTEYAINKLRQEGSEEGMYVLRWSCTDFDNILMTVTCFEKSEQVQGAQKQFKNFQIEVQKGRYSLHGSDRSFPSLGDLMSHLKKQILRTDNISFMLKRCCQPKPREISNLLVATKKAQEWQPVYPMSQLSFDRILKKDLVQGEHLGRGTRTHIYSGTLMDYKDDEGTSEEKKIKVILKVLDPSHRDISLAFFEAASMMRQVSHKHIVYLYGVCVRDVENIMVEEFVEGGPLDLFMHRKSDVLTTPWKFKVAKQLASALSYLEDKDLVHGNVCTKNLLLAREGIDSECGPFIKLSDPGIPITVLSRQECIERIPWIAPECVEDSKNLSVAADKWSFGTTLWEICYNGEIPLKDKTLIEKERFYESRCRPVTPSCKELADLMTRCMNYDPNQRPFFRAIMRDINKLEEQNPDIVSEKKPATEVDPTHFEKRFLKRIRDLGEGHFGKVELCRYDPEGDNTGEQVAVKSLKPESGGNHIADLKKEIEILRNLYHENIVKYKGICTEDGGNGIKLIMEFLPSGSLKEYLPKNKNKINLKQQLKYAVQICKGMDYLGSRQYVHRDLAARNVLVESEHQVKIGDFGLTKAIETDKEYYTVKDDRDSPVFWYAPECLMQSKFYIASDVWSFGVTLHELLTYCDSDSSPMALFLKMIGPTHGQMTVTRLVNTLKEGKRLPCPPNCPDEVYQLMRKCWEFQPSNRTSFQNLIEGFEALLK

MAVS [4] = molecular target: T2, MAVS; assay: as above; conditions: covalent; 125 μM, 4 or 24 h in intact 786-O cells

C=C(CC(=O)OCCCCCCCC)C(=O)O [4-OI, 4-octyl itaconate]
competition with 4-OI-alk in affinity pull-down, immunoblot (IKKβ [1]): non-tagged 4-OI competed with 4-OI-alk and reduced the interaction between IKKβ and 4-OI-alk | competition with 4-OI-alk in affinity pull-down, immunoblot (MAVS [2]): non-alkyne-tagged 4-OI to compete with 4-OI-alk led to a reduced interaction between MAVS and 4-OI-alk

C#CCCCCCCOC(=O)CC(=C)C(=O)O [4-OI-alk, 2-methylene-4-(oct-7-yn-1-yloxy)−4-oxobutanoic acid]
alkyne probe labelling in cells, CuAAC to biotin azide, streptavidin pull-down, (IKKβ [3]): We further validated the interaction between IKKβ and 4-OI-alk in cancer cells by pull-down | alkyne probe labelling in transfected cells, CuAAC to biotin azide, streptavidin (Flag-MAVS): partial reduction of 4-OI-alk labeling of MAVS C283A compared to MAVS wt | alkyne probe labelling in cells, CuAAC to biotin azide, streptavidin pull-down, (JAK1): We confirmed the binding of 4-OI-alk to JAK1 in our cellular model | alkyne probe labelling in cells, CuAAC to biotin azide, streptavidin pull-down, (MAVS [4]): We observed an enrichment in 4-OI-alk labeling of MAVS, demonstrating the protein-drug interaction

From PMC11096414 (Nature Communications, 2024)
